In patent US11111238B2, “Coumarin derivatives, processes for their preparation and uses thereof for the treatment of cancer” (Lead Discovery Center GmbH, priority 2017, dated 2021):

Assays:
[1] = system: mitochondrial transcription (7S RNA) in HeLa cells; assay: Quantitative real time-PCR assay of inhibition of mitochondrial transcription (cellular qPCR assay IMT); format: cell-based; settings: Homo sapiens, 4 h compound incubation, qRT-PCR according to Example 5, activity class
Method: Quantitative real-time PCR (qRT-PCR), based on the TagMan™ (Thermo Fisher Scientific, Waltham Mass.) technology, was carried out essentially as described in (Heid et al., 1996). HeLa cells were plated one day before compound treatment in RPMI medium supplemented with 10% Fetal Calf Serum and 2 mM L-glutamine. Cells were incubated with dilution series of compounds or vehicle (DMSO) for 4 h, prior to harvest and extraction of the RNA using the RNeasy Mini Kit (Qiagen, Hilden D), according to the manufacturer's instructions. RNA concentrations were measured spectroscopically, using a NanoDrop-2000 (Thermo Fisher Scientific, Waltham Mass.) and normalized prior to cDNA synthesis, using a ‘High-Capacity cDNA Reverse Transcription Kit’ (Thermo Fisher Scientific, Waltham Mass.). qRT-PCR was carried out using the ‘TaqMan Fast Advance Master Mix’ (Thermo Fisher Scientific, Waltham Mass.) on a 7500 Fast Real-Time PCR machine (Applied Biosystems, Foster City Calif.)
For these measurements, three genes were used to compare the effect of the scrutinized compounds in relation to their concentration. The POLRMT-gene was used to detect potential influences on nuclear transcription. Mitochondrial transcription in vivo was monitored by measurements 7S RNA. The TBP (TATA-box binding protein) gene was employed as the control (housekeeping gene) during qRT-PCR. The short-lived mitochondrial 7S RNA, which is not post-transcriptionally stabilized, allowed us to monitor rapid changes in mitochondrial transcription activity following compound addition. Biological triplicates were analyzed using the comparative CT Method (ΔΔCt) method (Bubner and Baldwin, 2004) and reported as Rq % values (Rq=Relative quantification=2-ΔΔCt).

[2] = biological target: mitochondrial RNA-polymerase (POLRMT) (Mus musculus, UniProt Q8BKF1); assay: Homogeneous TR-FRET assay for mitochondrial transcription activity; format: biochemical; settings: homogeneous TR-FRET assay according to Example 4; activity class
Sequence of mitochondrial RNA-polymerase (POLRMT) (Q8BKF1 42-1207): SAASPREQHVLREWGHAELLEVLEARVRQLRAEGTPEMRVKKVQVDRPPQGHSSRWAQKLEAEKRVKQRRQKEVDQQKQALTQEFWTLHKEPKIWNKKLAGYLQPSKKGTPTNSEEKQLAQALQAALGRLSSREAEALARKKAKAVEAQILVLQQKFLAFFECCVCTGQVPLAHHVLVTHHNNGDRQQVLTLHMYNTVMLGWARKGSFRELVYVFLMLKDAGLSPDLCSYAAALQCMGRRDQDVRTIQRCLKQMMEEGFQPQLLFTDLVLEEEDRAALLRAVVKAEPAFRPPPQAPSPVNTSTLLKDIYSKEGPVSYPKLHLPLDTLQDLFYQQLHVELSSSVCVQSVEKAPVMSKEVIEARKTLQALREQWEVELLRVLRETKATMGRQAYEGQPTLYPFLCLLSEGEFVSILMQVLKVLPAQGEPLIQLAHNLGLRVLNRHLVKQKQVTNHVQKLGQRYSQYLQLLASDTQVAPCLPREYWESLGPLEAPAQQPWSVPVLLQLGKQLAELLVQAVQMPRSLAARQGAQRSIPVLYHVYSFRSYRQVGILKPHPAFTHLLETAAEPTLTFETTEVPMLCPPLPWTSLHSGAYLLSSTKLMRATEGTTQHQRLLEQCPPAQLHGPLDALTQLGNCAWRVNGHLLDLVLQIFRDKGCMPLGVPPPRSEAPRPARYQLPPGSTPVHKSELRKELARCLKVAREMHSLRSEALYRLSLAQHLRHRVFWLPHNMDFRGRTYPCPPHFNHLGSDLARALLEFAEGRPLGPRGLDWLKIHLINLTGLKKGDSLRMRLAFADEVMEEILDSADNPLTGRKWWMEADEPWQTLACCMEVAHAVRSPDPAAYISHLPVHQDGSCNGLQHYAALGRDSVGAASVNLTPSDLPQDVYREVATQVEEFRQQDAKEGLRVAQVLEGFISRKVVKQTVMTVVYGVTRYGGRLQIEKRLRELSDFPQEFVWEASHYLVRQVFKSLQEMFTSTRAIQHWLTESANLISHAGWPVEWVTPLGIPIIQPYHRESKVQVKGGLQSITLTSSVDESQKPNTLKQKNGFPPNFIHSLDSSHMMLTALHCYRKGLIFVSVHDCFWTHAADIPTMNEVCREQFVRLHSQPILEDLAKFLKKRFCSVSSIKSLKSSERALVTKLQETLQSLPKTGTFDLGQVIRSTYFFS
Summary of the method: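 TR-FRET read-out (340 nm excitation, 665 nm emission) of a 407 bp transcript captured by Eu-streptavidin/biotin donor and ATTO647N acceptor DNA probes after EDTA stop. Transcription ran 2 h at RT with 500 μM […], mouse POLRMT/TFAM/TFB2M and LSP-plasmid template, after 10 min compound preincubation (10 μM or dilution series).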

Row | Compound | IC50 [1] [nM] | IC50 [2] [nM]
1 | CC(C)OC(=O)[C@H]1CCCN(C(=O)[C@@H](C)Oc2ccc3c(-c4ccc(F)cc4Cl)cc(=O)oc3c2)C1 [Compound 117, isopropyl (3S)-1-[(2R)-2-[4-(2-chloro-4-fluoro-phenyl)-2-oxo-chromen-7-yl]oxypropanoyl] piperidine-3-carboxylate] | 50 to 500 | 20 to 100
2 | C[C@@H](Oc1ccc2c(-c3ccc(F)cc3Cl)cc(=O)oc2c1)C(=O)N1CCC[C@H](C(=O)OC(C)(C)C)C1 [Compound 118, tert-butyl (3S)-1-[(2R)-2-[4-(2-chloro-4-fluoro-phenyl)-2-oxo-chromen-7-yl]oxypropanoyl] piperidine-3-carboxylate] | 50 to 500 | 20 to 100
3 | COC(=O)[C@H]1CN(C(=O)[C@@H](C)Oc2ccc3c(-c4ccc(F)cc4Cl)cc(=O)oc3c2)CCN1 [Compound 136, methyl (2R)-4-[(2R)-2-[4-(2-chloro-4-fluoro-phenyl)-2-oxo-chromen-7-yl]oxypropanoyl]piperazine-2-carboxylate] | 10 to 50 | 20 to 100
4 | C[C@@H](Oc1ccc2c(-c3ccc(F)cc3Cl)cc(=O)oc2c1)C(=O)Nc1cccc(C(=O)O)c1 [Compound 139, 3-[[(2R)-2-[4-(2-chloro-4-fluoro-phenyl)-2-oxo-chromen-7-yl]oxypropanoyl]amino]benzoic acid] | 50 to 500 | < 20
5 | C[C@@H](Oc1ccc2c(-c3ccc(F)cc3Cl)cc(=O)oc2c1)C(=O)Nc1ccc(C(=O)O)cc1 [Compound 141, 4-[[(2R)-2-[4-(2-chloro-4-fluoro-phenyl)-2-oxo-chromen-7-yl]oxypropanoyl]amino]benzoic acid] | 50 to 500 | < 20
6 | C[C@@H](Oc1ccc2c(-c3ccc(F)cc3Cl)cc(=O)oc2c1)C(=O)N1CC[C@@H](CC(=O)O)C1 [Compound 147, 2-[(3S)-1-[(2R)-2-[4-(2-chloro-4-fluoro-phenyl)-2-oxo-chromen-7-yl]oxypropanoyl]pyrrolidin-3-yl]acetic acid] | 10 to 50 | < 20
7 | COC(=O)c1cccc(NC(=O)[C@@H](C)Oc2ccc3c(-c4ccc(F)cc4Cl)cc(=O)oc3c2)n1 [Compound 149, methyl 6-[[(2R)-2-[4-(2-chloro-4-fluoro-phenyl)-2-oxo-chromen-7-yl]oxypropanoyl]amino]pyridine-2-carboxylate] | 50 to 500 | 20 to 100
8 | C[C@@H](Oc1ccc2c(-c3ccc(F)cc3Cl)cc(=O)oc2c1)C(=O)N1CC[C@H](C(=O)O)C1 [Compound 159, (3S)-1-[(2R)-2-[4-(2-chloro-4-fluoro-phenyl)-2-oxo-chromen-7-yl]oxypropanoyl]pyrrolidine-3-carboxylic acid] | 500 to 5000 | 20 to 100
9 | C[C@@H](Oc1ccc2c(-c3ccc(F)cc3Cl)cc(=O)oc2c1)C(=O)N1CCN(C(=O)CCl)CC1 [Compound 166, (R)-4-(2-chloro-4-fluorophenyl)-7-((1-(4-(2-chloroacetyl)piperazin-1-yl)-1-oxopropan-2-yl)oxy)-2H-chromen-2-one] | < 10 | < 20
10 | C[C@@H](Oc1ccc2c(-c3ccc(F)cc3Cl)cc(=O)oc2c1)C(=O)N1CCC[C@H](NC(=O)CCl)C1 [Compound 167, 2-chloro-N-[(3S)-1-[(2R)-2-[4-(2-chloro-4-fluoro-phenyl)-2-oxo-chromen-7-yl]oxypropanoyl]-3-piperidyl]acetamide] | < 10 | < 20
11 | CCC(=O)N1CCN(C(=O)[C@@H](C)Oc2ccc3c(-c4ccc(F)cc4Cl)cc(=O)oc3c2)CC1 [Compound 168, 4-(2-chloro-4-fluoro-phenyl)-7-[(1R)-1-methyl-2-oxo-2-(4-propanoylpiperazin-1-yl)ethoxy]chromen-2-one] | < 10 | < 20
12 | CCC(=O)N[C@H]1CCCN(C(=O)[C@@H](C)Oc2ccc3c(-c4ccc(F)cc4Cl)cc(=O)oc3c2)C1 [Compound 169, N-[(3S)-1-[(2R)-2-[4-(2-chloro-4-fluoro-phenyl)-2-oxo-chromen-7-yl]oxypropanoyl]-3-piperidyl]propanamide] | < 10 | < 20
13 | C[C@@H](Oc1ccc2c(-c3ccccc3Cl)cc(=O)oc2n1)C(=O)N1CCC[C@H](C(=O)O)C1 [Compound 172, (3S)-1-[(2R)-2-[4-(2-chlorophenyl)-2-oxo-pyrano[2,3-b]pyridin-7-yl]oxypropanoyl]piperidine-3-carboxylic acid] | 50 to 500 | 20 to 100

Next, values leading:

Row | IC50 [1] [nM] | IC50 [2] [nM] | Compound
14 | < 10 | 100 to 1000 | CCCCCCCOC(=O)[C@H]1CCCN(C(=O)[C@@H](C)Oc2ccc3c(-c4ccc(F)cc4Cl)cc(=O)oc3c2)C1 [Compound 120, heptyl (3S)-1-[(2R)-2-[4-(2-chloro-4-fluoro-phenyl)-2-oxo-chromen-7-yl]oxypropanoyl] piperidine-3-carboxylate]
15 | < 10 | 20 to 100 | CC(C)OC(=O)OCOC(=O)[C@H]1CCCN(C(=O)[C@@H](C)Oc2ccc3c(-c4ccc(F)cc4Cl)cc(=O)oc3c2)C1 [Compound 121, (S)-((isopropoxycarbonyl)oxy)methyl 1-((R)-2-((4-(2-chloro-4-fluorophenyl)-2-oxo-2H-chromen-7-yl)oxy)propanoyl)piperidine-3-carboxylate]
16 | < 10 | 20 to 100 | CNC(=O)[C@H]1CCCN(C(=O)[C@@H](C)Oc2ccc3c(-c4ccc(F)cc4Cl)cc(=O)oc3c2)C1 [Compound 122]
17 | < 10 | 20 to 100 | CC(C)OC(=O)C[C@H]1CCCN(C(=O)[C@@H](C)Oc2ccc3c(-c4ccc(F)cc4Cl)cc(=O)oc3c2)C1 [Compound 123, isopropyl 2-[(3R)-1-[(2R)-2-[4-(2-chloro-4-fluoro-phenyl)-2-oxo-chromen-7-yl]oxypropanoyl]-3-piperidyl]acetate]
18 | < 10 | 20 to 100 | C[C@@H](Oc1ccc2c(-c3ccc(F)cc3Cl)cc(=O)oc2c1)C(=O)N1CCC[C@H](CC(=O)OC(C)(C)C)C1 [Compound 124, tert-butyl 2-[(3R)-1-[(2R)-2-[4-(2-chloro-4-fluoro-phenyl)-2-oxo-chromen-7-yl]oxypropanoyl]-3-piperidyl]acetate]
19 | < 10 | < 20 | C[C@@H](Oc1ccc2c(-c3ccc(F)cc3Cl)cc(=O)oc2c1)C(=O)N1CCC[C@H](CC(=O)OCCN2CCOCC2)C1 [Compound 125]
20 | < 10 | 100 to 1000 | CCCCCCCOC(=O)C[C@H]1CCCN(C(=O)[C@@H](C)Oc2ccc3c(-c4ccc(F)cc4Cl)cc(=O)oc3c2)C1 [Compound 126, heptyl 2-[(3R)-1-[(2R)-2-[4-(2-chloro-4-fluoro-phenyl)-2-oxo-chromen-7-yl]oxypropanoyl]-3-piperidyl]acetate]
21 | < 10 | 20 to 100 | CC(C)OC(=O)OCOC(=O)C[C@H]1CCCN(C(=O)[C@@H](C)Oc2ccc3c(-c4ccc(F)cc4Cl)cc(=O)oc3c2)C1 [Compound 127, isopropoxycarbonyloxymethyl 2-[(3R)-1-[(2R)-2-[4-(2-chloro-4-fluoro-phenyl)-2-oxo-chromen-7-yl]oxypropanoyl]-3-piperidyl]acetate]
22 | < 10 | < 20 | CNC(=O)C[C@H]1CCCN(C(=O)[C@@H](C)Oc2ccc3c(-c4ccc(F)cc4Cl)cc(=O)oc3c2)C1 [Compound 128, 2-[(3R)-1-[(2R)-2-[4-(2-chloro-4-fluoro-phenyl)-2-oxo-chromen-7-yl]oxypropanoyl]-3-piperidyl]-N-methyl-acetamide]
23 | < 10 | 20 to 100 | C[C@@H](Oc1ccc2c(-c3ccc(F)cc3Cl)cc(=O)oc2c1)C(=O)N1CC[C@H](CC(=O)O)C1 [Compound 145, 2-[(3R)-1-[(2R)-2-[4-(2-chloro-4-fluoro-phenyl)-2-oxo-chromen-7-yl]oxypropanoyl]pyrrolidin-3-yl]acetic acid]
24 | < 10 | < 20 | C[C@@H](Oc1ccc2c(-c3ccc(F)cc3Cl)cc(=O)oc2c1)C(=O)Nc1ccc(C(=O)O)cn1 [Compound 155, 6-[[(2R)-2-[4-(2-chloro-4-fluoro-phenyl)-2-oxo-chromen-7-yl]oxypropanoyl]amino]pyridine-3-carboxylic acid]
25 | < 10 | < 20 | C=CC(=O)N1CCN(C(=O)[C@@H](C)Oc2ccc3c(-c4ccc(F)cc4Cl)cc(=O)oc3c2)CC1 [Compound 164, 4-(2-chloro-4-fluoro-phenyl)-7-[(1R)-1-methyl-2-oxo-2-(4-prop-2-enoylpiperazin-1-yl)ethoxy]chromen-2-one]
26 | < 10 | < 20 | C=CC(=O)N[C@H]1CCCN(C(=O)[C@@H](C)Oc2ccc3c(-c4ccc(F)cc4Cl)cc(=O)oc3c2)C1 [Compound 165, N-[(3S)-1-[(2R)-2-[4-(2-chloro-4-fluoro-phenyl)-2-oxo-chromen-7-yl]oxypropanoyl]-3-piperidyl]prop-2-enamide]
